Measurements as given in patent US4599362A, “2-aryl-ethyl ether derivatives and insecticidal and acaricidal agents containing said derivatives” (priority 1980, dated 1986).
Where two headings read alike, the source gives them in different places.

How the values were obtained:
[1] = test system: sensitive green rice leafhopper (collected at Chigasaki); experiment: Test 3: Effect on Sensitive Green Rice Leafhopper; type: in vivo; settings: Nephotettix cincticeps, female adults, 24 hours
Description: (§1) To a mixture of 20 parts of the compound of the present invention and 20 parts of Sorpol SM-200 (registered trademark for the product supplied by Toho Chemical Industrial Co., Ltd.) was added 60 parts of xylol, and the mixture was sufficiently blended. The obtained emulsifiable concentrate was diluted at a predetermined concentration with distilled water, and the obtained dilution was used.
(§2) Seedlings (having 2 to 3 leaves) of paddy rice were hydroponically cultured in a pot having a diameter of 5 cm. A chemical dilution having a concentration of 100 or 20 ppm, prepared in the same manner as described in Test 1, was applied with a sprayer at a rate of 3 ml per pot. The treated seedlings were air-dried and covered with a metal net cylinder, and female adults of resistant green rice leafhopper (collected at Nakagawara) and sensitive green rice leafhopper (collected at Chigasaki) were set, respectively, free in the pot at a density of 10 adults per pot. After of 24 hours, the numbers of killed and living adults were counted and the mortality was calculated. The test was made on three pots and the average value was calculated.

[2] = test system: third-instar larvae of diamond back moth; experiment: Test 4: Effect on Diamond Back Moth; type: in vivo; settings: Plutella xylostella, 24 hours
Description: as §1
Cabbage leaves were spread in a plastic cup, and 10 third-instar larvae of diamond back moth were set free in the cup.
A chemical dilution having a concentration of 100 or 20 ppm, prepared in the same manner as described in Test 1, was applied from an applicator at a rate of 3 ml per cup.
After scattering of the chemical dilution, the cup was covered, and after 24 hours, the numbers of killed and living larvae were counted and the mortality was calculated. The test was made on three cups and the average value was calculated.

[3] = test system: German cockroach; experiment: Test 7: Effect on German Cockroach; type: in vivo; settings: Blattella germanica, male adults, 24 hours, agonized and killed; for mortality at 10 mg/m2: 10 mg/m^2; for mortality at 50 mg/m2: 50 mg/m^2
Description: The bottom face of a high Petri dish having a diameter of 9 cm and a height of 9 cm was treated with 50 or 10 mg/m^2 of a test compound and the dish was air-dried. In order to prevent the adults from escaping from the dish, the inner wall of the dish was treated with butter. Then, 10 male adults of German cockroach were set free in each dish, and the dish was placed in a thermostat chamber maintained at 25° C. After 24 hours, the number of agonized and killed adults was counted. The test was made on two dishes and the average value was calculated.

[4] = test system: resistant green rice leafhopper (collected at Nakagawara); experiment: Test 3: Effect on Resistant Green Rice Leafhopper; type: in vivo, Nephotettix cincticeps Uhler; settings: Nephotettix cincticeps, 24 h, read-out: Mortality (%) Green Rice Leafhopper Collected at Nakagawara
Description: as §1, §2

[5] = test system: Second-instar and fifth-instar larvae of tobacco cutworm; experiment: Test 2: Tobacco Cutworm Larva Dipping Test; type: in vivo
Description: as §1
A dilution having a chemical concentration of 100 or 20 ppm was prepared in the same manner as described in Test 1.
Second-instar and fifth-instar larvae of tobacco cutworm were dipped in the dilution for 5 seconds, and the excessive dilution was removed by a filter paper. Then, the larvae were set free in a plastic cup and an artificial diet was supplied thereto. The cup was allowed to stand still in a thermostat chamber maintained at 25° C. After 24 hours, the numbers of the killed and living larvae were counted and the mortality was calculated. The test was made on three cups and the result was expressed by an average value.

[6] = test system: green peach aphids; experiment: Test 5: Effect on green peach Aphid; type: in vivo; settings: Myzus persicae, 24 hours, mortality class, read-out: Insecticidal Activity
Description: as §1
Seedlings (having 3 to 4 leaves) of an eggplant grown on a pot were inoculated with green peach aphids and the insects were allowed to grow. The number of the insects was counted. A chemical dilution having a concentration of 100 ppm, prepared in the same manner as described in Test 1, was applied with a spray gun at a rate of 10 ml per pot. Then, the pot was placed in a glass green house. After 24 hours, the number of living insects was counted and the mortality was calculated.
The test was made on three pots, and the average value was calculated. In Table 6, mark "A" indicates a mortality higher than 95%, mark "B" indicates a mortality of 80 to 95%, mark "C" indicates a mortality of 50 to 80%, and mark "D" indicates a mortality lower than 50%.

[7] = test system: two-spotted spider mite; experiment: Test 6: Effect on Two-Spotted Spider mite adults; type: in vivo; settings: Tetranychus urticae; 500 ppm; adults; 24 hours; read-out: Mortality (%)
Description: as §1
A kidney bean leaf disc perforated with a cork borer (15 mm in diameter) was placed on water-impreganated absorbent cotton (2 cm×2 cm), and 10 adults of two-spotted spider mite were set free. A chemical dilution having a concentration of 500 ppm was applied with an applicator in an amount of 3 ml.
The leaf disc-placed absorbent cotton was placed in a thermostat chamber maintained at 25° C. After 24 hours, the number of killed adults was counted and the mortality was calculated. The test was made on three leaf discs and the average value was calculated.

[8] = Test 9: Toxicity Test (acute oral, mice); settings: mouse, in vivo, po
Description: In the fish toxicity test, the test compound was dissolved in acetone to form a 1% solution, and a predetermined amount of the solution was used. In the mouse toxicity test, the test compound of the present invention was dissolved or suspended in corn oil, and a predetermined amount of the solution or suspension was used.
A predetermined amount of a solution or suspension of a test compound in corn oil was orally administered to male mice having a body weight of 19 to 23 g (0.2 ml per 10 g of the body weight). After 7 days, the number of killed mice was counted and the influences on the mice were examined.

[9] = 20 ppm, second-instar larvae, 24 hours, read-out: Mortality (%) Second-Instar Larvae
[10] = 100 ppm, second-instar larvae, 24 hours, read-out: Mortality (%) Second-Instar Larvae
[11] = topical, 24 h, read-out: Mortality (%) Fifth-Instar Larvae

Row | SMILES | mortality at 20 ppm [1] | mortality at 100 ppm [1] | mortality at 20 ppm [2] | mortality at 100 ppm [2] | mortality at 10 mg/m2 [3] | mortality at 50 mg/m2 [3] | mortality at 20 ppm [4] | mortality at 100 ppm [4] | mortality at 20 ppm [5, 9] | mortality at 100 ppm [5, 10] | mortality at 20 ppm [5, 11] | mortality at 100 ppm [5, 11] | mortality at 100 ppm [6] | mortality at 500 ppm [7] | LD50 at 168 h [8]
1 | CC(C)(COCc1ccc(F)c(Oc2ccccc2)c1)c1ccc(OC(F)F)cc1 [Compound 21, 3-Phenoxy-4-fluorobenzyl 2-(4-difluoromethoxyphenyl)-2-methylpropyl ether] | 100% | 100% | 100% | 100% | 100% | 100% | 100% | 100% | 100% | 100% | 100% | 100% | > 95% | 100% | –
2 | CCOc1ccc(C(C)(C)COCc2ccc(F)c(Oc3ccccc3)c2)cc1C [Compound 67] | 100% | 100% | 100% | 100% | 100% | 100% | 100% | 100% | 100% | 100% | 100% | 100% | > 95% | 100% | –
3 | CC(C)Oc1ccc(C(C)(C)COCc2ccc(F)c(Oc3ccccc3)c2)cc1 [Compound 41] | 100% | 100% | 100% | 100% | 100% | 100% | 100% | 100% | 100% | 100% | 100% | 100% | > 95% | 90% | –
4 | CCOc1ccc(C(C)COCc2ccc(F)c(Oc3ccccc3)c2)cc1 (stereo not shown) [Compound 43] | 100% | 100% | – | – | 100% | 100% | 100% | 100% | – | – | – | – | > 95% | – | –
5 | CC(C)C(C)(COCc1ccc(F)c(Oc2ccccc2)c1)c1ccc(Cl)cc1 (stereo not shown) [Compound 25, 3-phenoxy-4-fluorobenzyl 2-(4-chlorophenyl)-2,3-dimethylbutyl ether] | – | – | – | – | – | – | – | – | – | – | – | – | 80 to 95% | – | –
6 | COc1ccc(C(C)(C)COCc2ccc(F)c(Oc3ccccc3)c2)cc1OC [Compound 56] | – | – | – | – | – | – | – | – | – | – | – | – | – | 100% | > 500 mg/kg
7 | CCOCCOc1ccc(C(C)(C)COCc2ccc(F)c(Oc3ccccc3)c2)cc1 [Compound 39] | – | – | – | – | – | – | – | – | – | – | – | – | – | 100% | > 500 mg/kg
8 | CCOc1ccc(C(C)(C)COCc2ccc(F)c(Oc3ccccc3)c2)cc1OC [Compound 64] | 100% | 100% | – | – | 100% | 100% | 100% | 100% | – | – | – | – | > 95% | 100% | –
9 | CCOc1ccc(C(C)(C)COCc2ccc(F)c(Oc3ccccc3)c2)cc1Cl [Compound 59] | 100% | 100% | 100% | 100% | 100% | 100% | 100% | 100% | 100% | 100% | 100% | 100% | – | – | > 500 mg/kg
10 | CC(C)C(COCc1ccc(F)c(Oc2ccccc2)c1)c1ccc(Cl)cc1 (stereo not shown) [Compound 8, 3-Phenoxy-4-fluorobenzyl 2-(4-chlorophenyl)-3-methylbutyl ether] | 100% | 100% | – | – | – | – | 100% | 100% | – | – | – | – | – | – | > 500 mg/kg
11 | CCC(COCc1ccc(F)c(Oc2cccc(Cl)c2)c1)c1ccc(Cl)cc1 (stereo not shown) [Compound 34, 3-(3-Chlorophenoxy)-4-fluorobenzyl 2-(4-chlorophenyl)-butyl ether] | – | – | – | – | – | – | – | – | – | – | – | – | 80 to 95% | – | –
12 | CC(C)(COCc1ccc(F)c(Oc2ccccc2)c1)c1ccc(F)cc1 [Compound 29, 3-Phenoxy-4-fluorobenzyl 2-(4-fluorophenyl)-2-methylpropyl ether] | 100% | 100% | 100% | 100% | 100% | 100% | 100% | 100% | 100% | 100% | 100% | 100% | – | 100% | > 500 mg/kg
13 | Cc1ccc2cc(C(C)(C)COCc3ccc(F)c(Oc4ccccc4)c3)ccc2c1 [Compound 44, 3-Phenoxy-4-fluorobenzyl 2-(6-methyl-2-naphthyl)-2-methylpropyl ether] | 100% | 100% | – | – | 100% | 100% | 100% | 100% | – | – | – | – | > 95% | 95% | –
14 | CC(C)(COCc1ccc(F)c(Oc2ccccc2)c1)c1ccc2ccccc2c1 [Compound 12, 3-Phenoxy-4-fluorobenzyl 2-(naphthalene-2-yl)-2-methylpropyl ether] | 80% | 100% | – | – | – | – | 95% | 100% | – | – | – | – | – | – | > 500 mg/kg
15 | CCSc1ccc(C(C)(C)COCc2ccc(F)c(Oc3ccccc3)c2)cc1 [Compound 42, 3-Phenoxy-4-fluorobenzyl 2-(4-ethylthiophenyl)-2-methylpropyl ether] | – | – | 100% | 100% | – | – | – | – | – | – | – | – | > 95% | 100% | –
16 | CC(C)COc1ccc(C(C)(C)COCc2ccc(F)c(Oc3ccccc3)c2)cc1 [Compound 45] | 100% | 100% | 80% | 100% | 90% | 100% | 100% | 100% | – | – | – | – | > 95% | – | –
